# From patent publication US12435051B2, “Dual modulator of mGluR5 and 5-HT2A receptor, and use thereof” (Vivozon Inc., priority 2020, dated 2025)
# Biological target: T1, human 5-HT2AR (Homo sapiens, UniProt P28223)
# T1 construct: expressed in transfected cells; host or cells: HEK293
# Test: HTRF-based IP1 accumulation assay (5-HT2AR antagonistic effect)
# Type: cell-based
# Conditions: HEK293 cells overexpressing human 5-HT2AR; serotonin at EC80
# In short: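 HEK293 cells stably overexpressing human 5-HT2AR were pre-incubated with compound (top 10 μM, serial dilutions, LiCl buffer) 10 min at room temperature, then stimulated with EC80 serotonin 30 min at 37 °C. IP1 accumulation was read by HTRF; IC50s came from activity normalized to serotonin and IP1 controls.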
# T1 sequence (P28223 whole entry): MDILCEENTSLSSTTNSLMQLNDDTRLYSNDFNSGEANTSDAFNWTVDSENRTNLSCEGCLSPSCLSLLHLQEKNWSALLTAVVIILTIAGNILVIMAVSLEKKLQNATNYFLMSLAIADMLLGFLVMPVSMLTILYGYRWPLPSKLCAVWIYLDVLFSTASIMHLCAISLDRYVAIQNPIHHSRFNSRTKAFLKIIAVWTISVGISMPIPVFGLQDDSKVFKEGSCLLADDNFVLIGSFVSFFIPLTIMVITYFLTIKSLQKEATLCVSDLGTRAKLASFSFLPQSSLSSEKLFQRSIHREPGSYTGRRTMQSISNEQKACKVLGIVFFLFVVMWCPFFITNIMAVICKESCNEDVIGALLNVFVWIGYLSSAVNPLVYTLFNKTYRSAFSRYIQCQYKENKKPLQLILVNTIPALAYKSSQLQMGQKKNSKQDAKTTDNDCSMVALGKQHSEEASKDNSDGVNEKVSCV
row,SMILES,IC50 [nM]
1,"CC1(CNC(=O)c2ccc(C#Cc3ccc(F)cc3)cc2)COC1 [Example 83, 4-((4-fluorophenyl)ethynyl)-N-((3-methyloxetan-3-yl)methyl)benzamide]",100 to 500
2,"O=C(NC[C@H]1CCCOC1)c1ccc(C#Cc2ccccc2F)cc1 [Example 92, (R)-4-((2-fluorophenyl)ethynyl)-N-((tetrahydro-2H-pyran-3-yl)methyl)benzamide]",100 to 500

# Results, then the compound that gave them:
row,IC50 [nM],SMILES
1,100 to 500,"C[C@]1(O)C[C@@H](CNC(=O)c2ccc(C#Cc3ccccc3F)cc2)C1 [Example 87, 4-((2-fluorophenyl)ethynyl)-N-(((1s,3s)-3-hydroxy-3-methylcyclobutyl)methyl)benzamide]"
2,500 to 1000,"O=C(NCC1CCC(F)(F)CC1)c1ccc(C#Cc2ccncc2)cc1 [Example 88, N-((4,4-difluorocyclohexyl)methyl)-4-(pyridin-4-ylethynyl)benzamide]"
3,100 to 500,"O=C(NCC1CC(F)(F)C1)c1ccc(C#Cc2ccncc2)cc1 [Example 89, N-((3,3-difluorocyclobutyl)methyl)-4-(pyridin-4-ylethynyl)benzamide]"
4,100 to 500,"O=C(NCC1CCOC1)c1ccc(C#Cc2ccc(F)cc2)cc1 (centres unmarked) [Example 94, 4-((4-fluorophenyl)ethynyl)-N-((tetrahydrofuran-3-yl)methyl)benzamide]"

# Biological target: T2, mGluR5 (Homo sapiens, UniProt P41594)
# T2 construct: expressed in transfected cells; host or cells: HEK293
# Test: Fluorescence-based Ca2+ mobilization assay
# Type: cell-based
# Conditions: HEK293 cells overexpressing mGluR5; L-glutamate at EC80
# In short: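 HEK293 cells stably overexpressing mGluR5, dye-loaded 60 min at 37 °C, then preincubated with compound 30 min at room temperature in the dark. Ca2+ response to L-glutamate at EC80 read on FLIPR for 2 min. Signal normalised to glutamate (100%) and vehicle (0%); IC50 from % inhibition.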
# T2 sequence (P41594 21-1212): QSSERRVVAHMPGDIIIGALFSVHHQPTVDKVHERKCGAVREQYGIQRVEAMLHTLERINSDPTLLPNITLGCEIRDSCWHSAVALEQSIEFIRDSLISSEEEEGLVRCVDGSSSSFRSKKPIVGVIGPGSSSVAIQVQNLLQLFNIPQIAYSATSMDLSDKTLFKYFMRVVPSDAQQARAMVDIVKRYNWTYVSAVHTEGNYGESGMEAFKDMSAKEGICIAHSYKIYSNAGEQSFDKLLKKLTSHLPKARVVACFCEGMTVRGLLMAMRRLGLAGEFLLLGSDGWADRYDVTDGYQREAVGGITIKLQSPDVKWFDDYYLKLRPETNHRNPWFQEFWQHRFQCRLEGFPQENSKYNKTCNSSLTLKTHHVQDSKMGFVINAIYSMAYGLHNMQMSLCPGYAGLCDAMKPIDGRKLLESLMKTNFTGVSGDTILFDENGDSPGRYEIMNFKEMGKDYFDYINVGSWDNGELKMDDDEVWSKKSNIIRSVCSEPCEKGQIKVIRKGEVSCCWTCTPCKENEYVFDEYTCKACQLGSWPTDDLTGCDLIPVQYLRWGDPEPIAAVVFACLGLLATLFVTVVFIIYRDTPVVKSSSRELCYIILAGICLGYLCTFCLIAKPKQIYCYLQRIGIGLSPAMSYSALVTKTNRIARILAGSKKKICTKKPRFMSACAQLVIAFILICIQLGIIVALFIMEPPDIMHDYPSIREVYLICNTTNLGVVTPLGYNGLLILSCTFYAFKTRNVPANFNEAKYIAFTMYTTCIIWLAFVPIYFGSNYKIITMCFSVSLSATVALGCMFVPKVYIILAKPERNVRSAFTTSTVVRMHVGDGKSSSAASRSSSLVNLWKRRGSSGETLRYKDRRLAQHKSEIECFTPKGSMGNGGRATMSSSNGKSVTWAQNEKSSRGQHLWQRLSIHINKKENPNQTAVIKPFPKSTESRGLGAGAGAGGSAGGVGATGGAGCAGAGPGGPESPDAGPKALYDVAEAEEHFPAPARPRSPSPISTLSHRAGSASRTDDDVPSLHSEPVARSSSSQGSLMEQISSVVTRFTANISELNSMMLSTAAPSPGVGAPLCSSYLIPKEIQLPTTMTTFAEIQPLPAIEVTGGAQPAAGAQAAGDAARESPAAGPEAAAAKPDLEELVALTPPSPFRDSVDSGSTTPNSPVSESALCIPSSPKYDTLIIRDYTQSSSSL
row,SMILES,IC50 [nM]
1,"CC1(CNC(=O)c2ccc(C#Cc3ccc(F)cc3)cc2)COC1 [Example 83, 4-((4-fluorophenyl)ethynyl)-N-((3-methyloxetan-3-yl)methyl)benzamide]",< 100
2,"O=C(NC[C@H]1CCCOC1)c1ccc(C#Cc2ccccc2F)cc1 [Example 92, (R)-4-((2-fluorophenyl)ethynyl)-N-((tetrahydro-2H-pyran-3-yl)methyl)benzamide]",< 100

# The next lines start with the values.
row,IC50 [nM],SMILES
1,< 100,"C[C@]1(O)C[C@@H](CNC(=O)c2ccc(C#Cc3ccccc3F)cc2)C1 [Example 87, 4-((2-fluorophenyl)ethynyl)-N-(((1s,3s)-3-hydroxy-3-methylcyclobutyl)methyl)benzamide]"
2,< 100,"O=C(NCC1CCC(F)(F)CC1)c1ccc(C#Cc2ccncc2)cc1 [Example 88, N-((4,4-difluorocyclohexyl)methyl)-4-(pyridin-4-ylethynyl)benzamide]"
3,< 100,"O=C(NCC1CC(F)(F)C1)c1ccc(C#Cc2ccncc2)cc1 [Example 89, N-((3,3-difluorocyclobutyl)methyl)-4-(pyridin-4-ylethynyl)benzamide]"
4,100 to 500,"O=C(NCC1CCOC1)c1ccc(C#Cc2ccc(F)cc2)cc1 (centres unmarked) [Example 94, 4-((4-fluorophenyl)ethynyl)-N-((tetrahydrofuran-3-yl)methyl)benzamide]"

# Tested on: physical (tactile) allodynia in spinal nerve ligation model
# Test: Analgesic efficacy experiment using animal model (Chung model, spinal nerve ligation)
# Type: in vivo, Sprague-Dawley rats
# Conditions: Rattus norvegicus, po, 1 h, read-out: % reversal (1 h)
# Protocol: The Chung model (spinal nerve ligation model) is a representative animal model to study neuropathic pain and is widely accepted as a gold standard for an animal pain model by global pharmaceutical companies around the world.
# In this experiment, male Sprague-Dawley rats (100-120 g) purchased from Koatech (Pyeongtaek-si, Gyeonggi-do) were used. Rats were kept in a room maintained at constant temperature and humidity with a 12 hour light-dark cycle. Rats were allowed to eat and drink freely during the experiment.
# For the Chung surgery, rats were anesthetized by isoflurane inhalation and the left lumbar nerves L5 and L6 were tightly tied with a suture thread (6-0 silk thread) at the end of the dorsal ganglion and at a front of an entrance to the sciatic nerve according to the article (Kim and Chung (1992), Pain 50(3):355-63). After suturing the incision, the rats were recovered for 2 weeks in the controlled maintenance room to induce physical allodynia in the left hind paw of the rat. To measure physical (tactile) allodynia, the rats were placed in a cage with a wire mesh on the bottom. Stimuli of increasing intensity (using the von Frey filaments in a range of 0.41 to 15.8 g) were placed on the plantar surface on the side of the nerve injury. The stimulus intensity at which the pain response (abrupt lifting, licking or sucking of the foot) was induced was recorded while applying gradual increment of stimuli. As described in the study of Chaplan et al. (1994) (Chaplan et al. (1994) J. Neurosci. Methods 53(1):55-63), the paw withdrawal threshold (PWT) was determined by increasing or decreasing continuous stimulus intensity, and the result was analyzed by applying Dixon's up-down method. Only rats showing no behavior dysfunction (e.g., feet dragging or dropping) were selected and included in the study, and the PWT of the rats used was 3.16 g or less.
# After measuring the degree of basic reaction before drug injection, each compound and solvent were injected by oral administration (12.5-100 mg/kg), and the measurement was repeated at regular time intervals (60 and 120 minutes) after the drug was injected.
# The experimenter conducted the PWT measurement in a blind condition not knowing which rat was administered with which drug. The control group was administered with gabapentin (65 mg/kg, intraperitoneal administration), and was randomly mixed during the measurement. Statistical analysis was performed on the measured pain response threshold by calculating the reversal rate (% reversal) from pain in Equation 1 below. […] Pain reversal rate (% reversal)=[(PWT after drug administration)−(PWT before drug administration)]*100/[(15 g, Estimated PWT in normal animals)−(PWT before drug administration)] [Equation 1]
# The PWT used in this time is a value obtained by multiplying the gram, the unit of “force” measure, by 10,000, and taking the logarithm, which is a method generally used in academia.
# Each experiment consisted of the compound group, the solvent group of the compound and the gabapentin (GBP) group as positive control group. As solvent of the compound, 0.5% HPMC (hydroxypropylmethyl cellulose) was used.
row,SMILES,inhibition in vivo at 25 mg/kg [%]
1,"O=C(NC[C@H]1CCCOC1)c1ccc(C#Cc2ccccc2F)cc1 [Example 92, (R)-4-((2-fluorophenyl)ethynyl)-N-((tetrahydro-2H-pyran-3-yl)methyl)benzamide]",39.8

# Same assay, conditions: Rattus norvegicus, po, 2 h, read-out: % reversal (2 h)
row,SMILES,inhibition in vivo at 25 mg/kg [%]
1,"O=C(NC[C@H]1CCCOC1)c1ccc(C#Cc2ccccc2F)cc1 [Example 92, (R)-4-((2-fluorophenyl)ethynyl)-N-((tetrahydro-2H-pyran-3-yl)methyl)benzamide]",48.7

# Same assay, conditions: rat, oral, 25 mpk, 1 h; read-out: % reversal (1 h)
row,SMILES,inhibition in vivo at 25 mg/kg [%]
1,"CC1(CNC(=O)c2ccc(C#Cc3ccc(F)cc3)cc2)COC1 [Example 83, 4-((4-fluorophenyl)ethynyl)-N-((3-methyloxetan-3-yl)methyl)benzamide]",55

# Same assay, conditions: rat, oral, 25 mpk, 2 h; read-out: % reversal (2 h)
row,SMILES,inhibition in vivo at 25 mg/kg [%]
1,"CC1(CNC(=O)c2ccc(C#Cc3ccc(F)cc3)cc2)COC1 [Example 83, 4-((4-fluorophenyl)ethynyl)-N-((3-methyloxetan-3-yl)methyl)benzamide]",67.8

# Same assay, conditions: rat, oral, 50 mpk, 1 h; read-out: % reversal (1 h)
row,SMILES,inhibition in vivo at 50 mg/kg [%]
1,"C[C@]1(O)C[C@@H](CNC(=O)c2ccc(C#Cc3ccccc3F)cc2)C1 [Example 87, 4-((2-fluorophenyl)ethynyl)-N-(((1s,3s)-3-hydroxy-3-methylcyclobutyl)methyl)benzamide]",93.7
2,"O=C(NCC1CCC(F)(F)CC1)c1ccc(C#Cc2ccncc2)cc1 [Example 88, N-((4,4-difluorocyclohexyl)methyl)-4-(pyridin-4-ylethynyl)benzamide]",97.8
3,"O=C(NCC1CC(F)(F)C1)c1ccc(C#Cc2ccncc2)cc1 [Example 89, N-((3,3-difluorocyclobutyl)methyl)-4-(pyridin-4-ylethynyl)benzamide]",111
4,"O=C(NCC1CCOC1)c1ccc(C#Cc2ccc(F)cc2)cc1 (centres unmarked) [Example 94, 4-((4-fluorophenyl)ethynyl)-N-((tetrahydrofuran-3-yl)methyl)benzamide]",74.2

# Same assay, conditions: rat, oral, 50 mpk, 2 h; read-out: % reversal (2 h)
row,SMILES,inhibition in vivo at 50 mg/kg [%]
1,"C[C@]1(O)C[C@@H](CNC(=O)c2ccc(C#Cc3ccccc3F)cc2)C1 [Example 87, 4-((2-fluorophenyl)ethynyl)-N-(((1s,3s)-3-hydroxy-3-methylcyclobutyl)methyl)benzamide]",104
2,"O=C(NCC1CCC(F)(F)CC1)c1ccc(C#Cc2ccncc2)cc1 [Example 88, N-((4,4-difluorocyclohexyl)methyl)-4-(pyridin-4-ylethynyl)benzamide]",110
3,"O=C(NCC1CC(F)(F)C1)c1ccc(C#Cc2ccncc2)cc1 [Example 89, N-((3,3-difluorocyclobutyl)methyl)-4-(pyridin-4-ylethynyl)benzamide]",103
4,"O=C(NCC1CCOC1)c1ccc(C#Cc2ccc(F)cc2)cc1 (centres unmarked) [Example 94, 4-((4-fluorophenyl)ethynyl)-N-((tetrahydrofuran-3-yl)methyl)benzamide]",97.7

# Tested on: spinal nerve ligation model (neuropathic pain model)
# Test: Confirmation of synergistic analgesic effect via dual action (spinal nerve ligation model)
# Type: in vivo
# Conditions: sub-effective doses, FIG. 1
# Protocol: The confirmation of the synergistic analgesic effect via the dual action of mGluR5 and 5-HT2AR was carried out by the use of representative mGluR5 antagonist MPEP (2-methyl-6-(phenylethynyl)pyridine) and 5-HT2AR antagonist MDL11,939 in a “spinal nerve ligation model” which is a neuropathic pain model.
# In order to measure the analgesic effect of MPEP and MDL11,939, when administered alone or simultaneously together, the reversibility rate of pain relieving parameter (% reversal) was calculated according to the method of Experimental Example 4 and the results are represented in FIG. 1.
row,SMILES,"analgesic effect (% reversal), administered alone"
1,"OC(c1ccccc1)C1CCN(CCc2ccccc2)CC1 (centres unmarked) [MDL11,939]",did not show a significant analgesic effect
2,"Cc1cccc(C#Cc2ccccc2)n1 [MPEP, 2-methyl-6-(phenylethynyl)pyridine]",did not show a significant analgesic effect
